Laboratory results as given in patent US8344135B2, “Heterocyclic compound and use thereof” (Takeda Pharmaceutical Company Limited, priority 2007, dated 2013).

Tests used:
[1] = test system: MEK1/2 phosphorylation (Ser217/221) in HT-29 cells; test: Colon cancer cell HT-29 intracellular MEK phosphorylation inhibitory action in vitro; format: cell-based; details: Homo sapiens, 2 hr treatment, Western blot of phosphorylated MEK1/2
Procedure: Colon Cancer Cell HT-29 Intracellular MEK Phosphorylation Inhibitory Action in vitro
A cell suspension (500 μL) of human colon cancer cell HT-29 was plated in a 48-well plate (100,000 cells/well), and the cells were cultured overnight at 37° C. in the presence of 5% CO2, treated with a test compound (250 μL/well) diluted in 3-fold dilution series and cultured for two more hours. After 2 hr, the culture medium containing the test compound was removed, and the cells were lysed with SDS sample buffer (100 μL/well) and heated at 95° C. for 5 min. Thereafter, the cells were applied to SDS-PAGE, and the protein was transferred onto Sequi-Blot™ PVDF Membrane (Bio-Rad) by the Western blot method. The cells were blocked with a block-Ace solution (Snow Brand Milk Products Co., Ltd) dissolved in phosphate buffer to 5% W/V, and reacted overnight with anti-phosphorylated MEK1/2 (Ser217/221) (Cell signaling #9121) diluted 1000-fold with phosphate buffer containing 0.4% block-Ace. The membrane was washed with phosphate buffer containing 0.1% Tween 20 (Wako Pure Chemical Industries, Ltd.), and reacted at room temperature for 1 hr with HRP labeled rabbit IgG polyclonal antibody (Cell signaling #7074) diluted 1000-fold with phosphate buffer containing 0.4% block-Ace. The membrane was washed in the same manner as above, chemical luminescence of a phosphorylated MEK1/2 protein labeled with the antibody, which was caused by ECL-plus Detection Reagent (Amersham bioscience), was detected by Luminescent Image Analyzer LAS-1000 (FUJIFILM Corporation).

BRAF (V600E) = biological target: T1, BRAF (V600E) (Homo sapiens, UniProt P15056, V600E); test: Determination of BRAF (V600E) kinase inhibitory activity; format: biochemical; details: test compound 1.0 μM; substrate GST-MEK1 (K96R); [γ-32P]ATP; read-out: Inhibitory rate (%) at 1.0 μM
T1 construct: area encoding the BRAF kinase domain region, so that the protein contains an N-terminal Flag; made in house; host or cells: SF-21 insect cells infected with recombinant baculovirus BAC-V600E
Procedure: Determination of BRAF (V600E) Kinase Inhibitory Activity
A test compound (2.5 μL) dissolved in dimethyl sulfoxide (DMSO) was added to 37.5 μL of a reaction solution (25 mM HEPES (pH 7.5), 10 mM magnesium acetate, 1 mM dithiothreitol) containing BRAF (V600E) enzyme (30 ng) and recombinant type protein GST-MEK1 (K96R) 250 ng, and the mixture was incubated at room temperature for 10 min. ATP solution (10 μL, 2.5 μM ATP, 0.1 μCi [γ-^32P]ATP) was added to the obtained mixture, and the mixture was reacted at room temperature for 20 min. The reaction was quenched by adding 50 μL of ice-cooled 20% trichloroacetic acid (Wako Pure Chemical Industries, Ltd.). The reaction solution was allowed to stand at 4° C. for 30 min, and the acid-precipitable fraction was transferred to GF/C filter plate (Millipore Corporation) using cell harvester (PerkinElmer). The plate was dried at 45° C. for 60 min, and 40 μL of MicroScinti 0 (PerkinElmer) was added thereto. The radioactivity was measured using TopCount (PerkinElmer). The kinase inhibitory rate (%) of the test compound was calculated by the following formula: Inhibitory rate (%)=(1−(count of test compound−blank)÷(control−blank))×100
The count of the solution reacted without addition of the compound was used as a “control”, and the count of the solution without the compound and enzyme was used as a “blank”.

T1 sequence (P15056 457-717 V600E limits assumed): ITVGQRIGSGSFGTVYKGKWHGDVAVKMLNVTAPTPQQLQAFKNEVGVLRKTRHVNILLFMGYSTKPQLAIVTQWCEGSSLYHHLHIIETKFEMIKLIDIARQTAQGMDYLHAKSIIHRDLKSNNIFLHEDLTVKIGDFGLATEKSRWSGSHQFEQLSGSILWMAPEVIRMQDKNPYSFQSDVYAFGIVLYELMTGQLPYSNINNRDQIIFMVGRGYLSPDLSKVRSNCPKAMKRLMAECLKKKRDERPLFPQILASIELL

Row | SMILES | IC50 [1] [nM] | inhibition at 1 µM (BRAF (V600E)) [%]
1 | COc1ccc(NC(=O)c2cccc(C3(C#N)CC3)c2)cc1Oc1ccc2nc(NC(=O)CN3CCN(C)CC3)sc2n1 [Example C2, 3-(1-cyanocyclopropyl)-N-{4-methoxy-3-[(2-{[(4-methylpiperazin-1-yl)acetyl]amino}[1,3]thiazolo[5,4-b]pyridin-5-yl)oxy]phenyl}benzamide] | < 500 | 
2 | Cc1ccc(NC(=O)c2cccc(C(F)(F)F)c2)cc1Oc1ccc2nc(NC(=O)CO)sc2n1 [Example C9, N-(3-{[2-(glycoloylamino)[1,3]thiazolo[5,4-b]pyridin-5-yl]oxy}-4-methylphenyl)-3-(trifluoromethyl)benzamide] | < 500 | 
3 | Cc1ccc(NC(=O)c2cccc(C(F)(F)F)c2)cc1Oc1ccc2nc(NC(=O)CN3CCN(C)CC3)sc2n1 [Example C11, N-{4-methyl-3-[(2-{[(4-methylpiperazin-1-yl)acetyl]amino}[1,3]thiazolo[5,4-b]pyridin-5-yl)oxy]phenyl}-3-(trifluoromethyl)benzamide] | < 500 | 
4 | Cc1ccc(NC(=O)c2cccc(C(C)(C)C#N)c2)cc1Oc1ccc2nc(NC(=O)CO)sc2n1 [Example C13, 3-(1-cyano-1-methylethyl)-N-(3-{[2-(glycoloylamino)[1,3]thiazolo[5,4-b]pyridin-5-yl]oxy}-4-methylphenyl)benzamide] | < 500 | 
5 | Cc1ccc(NC(=O)c2cccc(C3(C#N)CC3)c2)cc1Oc1ccc2nc(NC(=O)C3CC3)sc2n1 [Example C16, 3-(1-cyanocyclopropyl)-N-[3-({2-[(cyclopropylcarbonyl)amino][1,3]thiazolo[5,4-b]pyridin-5-yl}oxy)-4-methylphenyl]benzamide] | < 500 | 
6 | N#CC1(c2cccc(C(=O)Nc3cccc(Oc4ccc5nc(NC(=O)C6CC6)sc5n4)c3)c2)CC1 [Example C26, 3-(1-cyanocyclopropyl)-N-[3-({2-[(cyclopropylcarbonyl)amino][1,3]thiazolo[5,4-b]pyridin-5-yl}oxy)phenyl]benzamide] | < 500 | 
7 | Cc1ccc(Oc2ccc3nc(NC(=O)CN4CCN(C)CC4)sc3n2)cc1NC(=O)c1cccc(C(C)(C)C#N)c1 [Example C35, 3-(1-cyano-1-methylethyl)-N-{2-methyl-5-[(2-{[(4-methylpiperazin-1-yl)acetyl]amino}[1,3]thiazolo[5,4-b]pyridin-5-yl)oxy]phenyl}benzamide] | < 500 | 
8 | CN(c1cccc(NC(=O)c2cccc(C(F)(F)F)c2)c1)c1ccc2nc(NC(=O)C3CC3)sc2n1 [Example C40, N-{3-[{2-[(cyclopropylcarbonyl)amino][1,3]thiazolo[5,4-b]pyridin-5-yl}(methyl)amino]phenyl}-3-(trifluoromethyl)benzamide] | < 500 | 

Other lines, results leading:

Row | IC50 [1] [nM] | inhibition at 1 µM (BRAF (V600E)) [%] | SMILES
9 | < 500 |  | CN1CCN(CC(=O)Nc2nc3ccc(Oc4cc(NC(=O)c5cccc(C(C)(C)C#N)c5)ccc4Cl)nc3s2)CC1 [Example C51]
10 |  | 100 | CC(C)(C#N)c1cccc(C(=O)Nc2cc(Oc3ccc4nc(NC(=O)C5CC5)sc4n3)c(Cl)cc2F)c1 [Example C60, N-[4-chloro-5-({2-[(cyclopropylcarbonyl)amino][1,3]thiazolo[5,4-b]pyridin-5-yl}oxy)-2-fluorophenyl]-3-(1-cyano-1-methylethyl)benzamide]
11 |  | 101 | CC(C)(C#N)c1cccc(C(=O)Nc2cc(Oc3ccc4nc(NC(=O)C5CC5)sc4n3)ccc2F)c1Cl [Example C63, 2-chloro-3-(1-cyano-1-methylethyl)-N-[5-({2-[(cyclopropylcarbonyl)amino][1,3]thiazolo[5,4-b]pyridin-5-yl}oxy)-2-fluorophenyl]benzamide]
12 | < 500 |  | CC(=O)Nc1nc2ccc(Oc3ccc(F)c(NC(=O)c4cccc(C5(C#N)CC5)c4Cl)c3)nc2s1 [Example C65, N-(5-{[2-(acetylamino)[1,3]thiazolo[5,4-b]pyridin-5-yl]oxy}-2-fluorophenyl)-2-chloro-3-(1-cyanocyclopropyl)benzamide]
13 |  | 100 | N#CC1(c2cccc(C(=O)Nc3cc(Oc4ccc5nc(NC(=O)C6CC6)sc5n4)c(F)cc3F)c2Cl)CC1 [Example C75, 2-chloro-3-(1-cyanocyclopropyl)-N-[5-({2-[(cyclopropylcarbonyl)amino][1,3]thiazolo[5,4-b]pyridin-5-yl}oxy)-2,4-difluorophenyl]benzamide]
14 | < 500 |  | Cc1ccc(NC(=O)c2cccc(C(C)(C)C#N)c2)cc1Oc1ccc2nc(NC(=O)/C=C/c3ccc(Cl)cc3)sc2n1 [Example C99, N-{3-[(2-{[(2E)-3-(4-chlorophenyl)prop-2-enoyl]amino}[1,3]thiazolo[5,4-b]pyridin-5-yl)oxy]-4-methylphenyl}-3-(1-cyano-1-methylethyl)benzamide]
15 |  | 98 | CC(=O)Nc1nc2cnc(N(C)c3cccc(NC(=O)c4cccc(C(F)(F)F)c4)c3)nc2s1 [Example D1, N-{3-[[2-(acetylamino)[1,3]thiazolo[5,4-d]pyrimidin-5-yl](methyl)amino]phenyl}-3-(trifluoromethyl)benzamide]
16 | < 500 |  | CN(c1cccc(NC(=O)c2cccc(C(F)(F)F)c2)c1)c1ncc2nc(NC(=O)C3CC3)sc2n1 [Example D2, N-{3-[{2-[(cyclopropylcarbonyl)amino][1,3]thiazolo[5,4-d]pyrimidin-5-yl}(methyl)amino]phenyl}-3-(trifluoromethyl)benzamide]
